Test results: the NIST ThermoML archive (doi:10.1016/j.jct.2018.04.011)

Experiments:
[1] = Molar enthalpy of transition or fusion; conditions: Crystal; DSC
[2] = molar heat capacity at constant pressure; conditions: 101.33 kPa, DSC
[3] = Crystal; for Normal melting temperature: DTA

COC(=O)c1ccccc1O [methyl 2-hydroxybenzoate]
Conditions	Molar enthalpy of transition or fusion [kcal/mol]	Normal melting temperature [°C]
[1]	3.89	–
[3]	–	-1.66

[2], Liquid
Conditions	molar heat capacity at constant pressure [J/K/mol]
293.15 K	240.4
294.15 K	241.6
295.15 K	242.5
296.15 K	243.3
297.15 K	243.9
298.15 K	244.3
299.15 K	244.8
300.15 K	245.2
301.15 K	245.6
302.15 K	246.1
303.15 K	246.6
304.15 K	246.9
305.15 K	247.1
306.15 K	247.4
307.15 K	247.8
308.15 K	248
309.15 K	248.3
310.15 K	248.6
311.15 K	249.1
312.15 K	249.4

COC(=O)c1cccc(O)c1 [methyl 3-hydroxybenzoate]
Conditions	Molar enthalpy of transition or fusion [kcal/mol]	Normal melting temperature [°C]
[1]	4.81	–
[3]	–	71.10

[2], Crystal
Conditions	molar heat capacity at constant pressure [J/K/mol]
293.15 K	200.2
294.15 K	201.3
295.15 K	202.6
296.15 K	203.3
297.15 K	204.1
298.15 K	205
299.15 K	205.6
300.15 K	206.2
301.15 K	206.7
302.15 K	207.5
303.15 K	208.2
304.15 K	208.7
305.15 K	209.2
306.15 K	209.8
307.15 K	210.4
308.15 K	211
309.15 K	211.5
310.15 K	212
311.15 K	212.6
312.15 K	213.1

Conditions	mass density [kg/m3]
[3], 298.15 K, 101.33 kPa, Pycnometric method	1230

COC(=O)c1ccc(O)cc1 [methyl 4-hydroxybenzoate]
Conditions	Molar enthalpy of transition or fusion [kcal/mol]	Normal melting temperature [°C]
[1]	6.18	–
[3]	–	126

[2], Crystal
Conditions	molar heat capacity at constant pressure [J/K/mol]
293.15 K	209.8
294.15 K	211
295.15 K	212.2
296.15 K	212.8
297.15 K	213.6
298.15 K	214.4
299.15 K	215.2
300.15 K	215.7
301.15 K	216.2
302.15 K	217
303.15 K	217.8
304.15 K	218.4
305.15 K	218.9
306.15 K	219.3
307.15 K	220.1
308.15 K	220.6
309.15 K	221.2
310.15 K	221.7
311.15 K	222.4
312.15 K	222.8
